Values belong to the compound of their own block, whether it stands above or below them. The source made the active and inactive calls. The calls are words filed in the database; no cut-off is given here.
Assays:
Format in all cases: cell-based
[1] = biological target: T1, Oxysterols receptor LXR-beta (Mus musculus) (UniProt Q60644); test: Agonist activity at LXRbeta in mouse RAW264.7 cells assessed as induction of ABCA1 promoter activation at 1 uM after 24 hrs by Dual-Glo luciferase reporter gene assay relative to vehicle-treated control
T1 sequence (whole entry): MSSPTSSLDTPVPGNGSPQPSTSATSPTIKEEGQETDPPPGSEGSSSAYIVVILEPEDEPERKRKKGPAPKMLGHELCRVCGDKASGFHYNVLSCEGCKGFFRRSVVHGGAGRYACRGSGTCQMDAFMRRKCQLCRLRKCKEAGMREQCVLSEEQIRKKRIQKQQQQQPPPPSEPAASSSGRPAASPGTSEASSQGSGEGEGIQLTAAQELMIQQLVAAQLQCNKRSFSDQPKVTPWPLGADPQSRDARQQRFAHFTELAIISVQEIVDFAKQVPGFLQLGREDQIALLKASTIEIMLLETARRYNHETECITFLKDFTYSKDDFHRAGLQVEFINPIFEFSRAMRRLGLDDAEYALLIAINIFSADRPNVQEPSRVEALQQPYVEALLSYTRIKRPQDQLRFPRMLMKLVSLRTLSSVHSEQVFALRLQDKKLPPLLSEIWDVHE

[2] = biological target: T1, Oxysterols receptor LXR-beta (Mus musculus); test: Agonist activity at LXRbeta in mouse BV2 cells assessed as degradation of intracellular amyloid beta42 preincubated for 18 hrs followed by soluble amyloid beta42 addition measured after 24 hrs by ELISA; details: BV-2
[3] = biological target: T1, Oxysterols receptor LXR-beta (Mus musculus); test: Agonist activity at LXRbeta in mouse BV2 cells assessed as upregulation of apoE protein expression at 10 uM after 48 hrs by Western blot analysis relative to vehicle-treated control; details: BV-2
[4] = tested on: BV-2; test: Cytotoxicity against mouse BV2 cells assessed as inhibition of cell viability at 50 uM after 48 hrs by SRB assay relative to vehicle-treated control; details: bv-2, 48 h
[5] = tested on: HEK293; test: Cytotoxicity against HEK293 cells assessed as inhibition of cell viability at 50 uM after 48 hrs by SRB assay relative to vehicle-treated control; details: human, hek293, 48 h
[6] = biological target: T1, Oxysterols receptor LXR-beta (Mus musculus); test: Agonist activity at LXRbeta in mouse BV2 cells assessed as degradation of intracellular soluble amyloid beta42 at 1 uM preincubated for 18 hrs followed by soluble amyloid beta42 addition measured after 24 hrs by ELISA relative to vehicle-treated control; details: BV-2
[7] = biological target: T1, Oxysterols receptor LXR-beta (Mus musculus); test: Agonist activity at LXRbeta in mouse BV2 cells assessed as upregulation of apoE protein expression at 1 uM after 48 hrs by Western blot analysis relative to vehicle-treated control; details: BV-2
[8] = biological target: T1, Oxysterols receptor LXR-beta (Mus musculus); test: Agonist activity at LXRbeta in mouse BV2 cells assessed as upregulation of apoE protein expression at 0.1 uM after 48 hrs by Western blot analysis relative to vehicle-treated control; details: BV-2
[9] = biological target: T2, Oxysterols receptor LXR-beta (Homo sapiens) (UniProt P55055); test: Agonist activity at human LXRbeta transfected in HEK293 cells at 0.1 uM after 24 hrs by luciferase reporter gene assay relative to vehicle-treated control
T2 sequence (whole entry): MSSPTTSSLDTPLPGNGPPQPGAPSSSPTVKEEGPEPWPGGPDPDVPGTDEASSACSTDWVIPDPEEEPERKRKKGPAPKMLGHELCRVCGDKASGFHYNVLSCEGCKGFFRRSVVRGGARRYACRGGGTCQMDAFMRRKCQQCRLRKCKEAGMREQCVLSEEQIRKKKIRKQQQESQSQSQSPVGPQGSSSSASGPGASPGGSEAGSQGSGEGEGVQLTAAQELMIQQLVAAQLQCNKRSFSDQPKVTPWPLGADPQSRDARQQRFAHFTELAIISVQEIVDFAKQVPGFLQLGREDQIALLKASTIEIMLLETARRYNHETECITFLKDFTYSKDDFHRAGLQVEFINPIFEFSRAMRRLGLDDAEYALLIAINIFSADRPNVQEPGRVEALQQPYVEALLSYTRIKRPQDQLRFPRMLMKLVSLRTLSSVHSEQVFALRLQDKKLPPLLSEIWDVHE

[10] = biological target: T2, Oxysterols receptor LXR-beta (Homo sapiens); test: Agonist activity at human LXRbeta transfected in HEK293 cells at 1 uM after 24 hrs by luciferase reporter gene assay relative to vehicle-treated control
[11] = tested on: HepG2; test: Induction of intracellular triglyceride accumulation in human HepG2 cells at 1 uM after 4 days relative to vehicle-treated control; details: hepg2, 96 h
[12] = tested on: HepG2; test: Cytotoxicity against human HepG2 cells assessed as inhibition of cell viability at 50 uM after 48 hrs by SRB assay relative to vehicle-treated control; details: hepg2, 48 h, 50 µM
[13] = tested on: RAW264.7; test: Cytotoxicity against mouse RAW264.7 cells assessed as inhibition of cell viability at 50 uM after 48 hrs by SRB assay relative to vehicle-treated control; details: raw264.7, 48 h
[14] = biological target: T3, Oxysterols receptor LXR-alpha (Homo sapiens) (UniProt Q13133); test: Agonist activity at human LXRalpha transfected in HEK293 cells at 1 uM after 24 hrs by luciferase reporter gene assay relative to vehicle-treated control
T3 sequence (whole entry): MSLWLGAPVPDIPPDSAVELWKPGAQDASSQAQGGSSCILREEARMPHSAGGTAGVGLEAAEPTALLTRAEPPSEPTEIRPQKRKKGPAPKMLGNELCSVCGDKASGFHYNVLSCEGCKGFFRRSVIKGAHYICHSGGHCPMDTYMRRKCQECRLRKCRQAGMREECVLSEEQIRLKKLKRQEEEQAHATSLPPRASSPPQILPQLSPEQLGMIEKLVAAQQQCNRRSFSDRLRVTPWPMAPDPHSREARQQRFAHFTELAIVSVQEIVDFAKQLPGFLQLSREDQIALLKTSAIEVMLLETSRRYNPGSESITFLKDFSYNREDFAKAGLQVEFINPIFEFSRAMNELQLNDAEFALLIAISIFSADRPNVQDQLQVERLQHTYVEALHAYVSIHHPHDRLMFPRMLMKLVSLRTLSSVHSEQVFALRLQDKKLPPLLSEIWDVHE

[15] = biological target: T1, Oxysterols receptor LXR-beta (Mus musculus); test: Agonist activity at LXRbeta in mouse BV2 cells assessed as upregulation of ABCA1 protein expression at 1 uM after 12 to 48 hrs by Western blot analysis; details: BV-2
[16] = biological target: T1, Oxysterols receptor LXR-beta (Mus musculus); test: Agonist activity at LXRbeta in mouse RAW264.7 cells assessed as upregulation of ABCA1 protein expression after 18 to 48 hrs by Western blot analysis
[17] = tested on: HepG2; test: Induction of cytoplasmic lipid accumulation in human HepG2 cells at 10 uM after 4 days by oil red O staining-based light microscopic analysis; details: hepg2, 96 h
[18] = biological target: T1, Oxysterols receptor LXR-beta (Mus musculus); test: Agonist activity at LXRbeta in mouse RAW264.7 cells assessed as upregulation of ABCA1 protein expression at 1 uM after 18 to 48 hrs by Western blot analysis
[19] = biological target: T1, Oxysterols receptor LXR-beta (Mus musculus); test: Agonist activity at LXRbeta in mouse RAW264.7 cells assessed as induction of ABCA1 promoter activation after 24 hrs by Dual-Glo luciferase reporter gene assay
[20] = biological target: T1, Oxysterols receptor LXR-beta (Mus musculus); test: Agonist activity at LXRbeta in mouse BV2 cells assessed as degradation of intracellular soluble amyloid beta42 at 0.1 uM preincubated for 18 hrs followed by soluble amyloid beta42 addition measured after 24 hrs by ELISA relative to vehicle-treated control; details: BV-2
[21] = tested on: HepG2; test: Induction of intracellular triglyceride accumulation in human HepG2 cells at 10 uM after 4 days relative to vehicle-treated control; details: hepg2, 96 h
[22] = biological target: T3, Oxysterols receptor LXR-alpha (Homo sapiens); test: Agonist activity at human LXRalpha transfected in HEK293 cells at 0.1 uM after 24 hrs by luciferase reporter gene assay relative to vehicle-treated control
[23] = biological target: T1, Oxysterols receptor LXR-beta (Mus musculus); test: Agonist activity at LXRbeta in mouse BV2 cells assessed as upregulation of ABCA1 protein expression after 12 to 48 hrs by Western blot analysis; details: BV-2
[24] = tested on: HepG2; test: Induction of cytoplasmic lipid accumulation in human HepG2 cells at 1 uM after 4 days by oil red O staining-based light microscopic analysis; details: hepg2, 96 h

SMILES: Nc1ccc(C(=O)/C=C/c2ccc3ccccc3c2)c(O)c1
Activity [2]: Dose-dependent effect | fold change (FC) [3]: 1.7 | Activity [4]: Non-toxic | Activity [5]: Non-toxic | Activity [6]: 37% | fold change (FC) [7]: 1.4 | fold change (FC) [8]: 1.4 | fold change (FC) [9]: 1.38 | fold change (FC) [10]: 2.22 | Activity [11]: -21% | Activity [12]: Non-toxic | fold change (FC) [1]: 2.64 | Activity [13]: Non-toxic | fold change (FC) [14]: 1.11 | Activity [15]: Active | Activity [16]: Dose-dependent effect | Activity [17]: Toxic | Activity [18]: Active | Activity [19]: Dose-dependent effect | Activity [20]: 44% | Activity [21]: 19% | fold change (FC) [22]: 1.06 | Activity [23]: Dose-dependent effect

SMILES: CN(CCOc1ccc(CC2SC(=O)NC2=O)cc1)c1ccccn1 (stereo unspecified)
fold change (FC) [1]: 1.19

SMILES: Cc1ccc(-c2cc(=O)c3ccc(N)cc3o2)s1
fold change (FC) [1]: 1.47

SMILES: Nc1ccc(C(=O)CCc2ccc3ccccc3c2)c(O)c1
fold change (FC) [1]: 1.34

SMILES: COc1cc(/C=C/C(=O)c2ccc(N)cc2O)cc(OC)c1OC
fold change (FC) [1]: 0.98

SMILES: O=c1cc(-c2ccc(-c3ccccc3)cc2)oc2cc(O)ccc12
fold change (FC) [1]: 1.15

SMILES: Nc1ccc(C(=O)/C=C/c2ccc(F)cc2)c(O)c1
fold change (FC) [1]: 1.36

SMILES: CCOc1ccc(/C=C/C(=O)c2ccc(N)cc2O)cc1
Activity [6]: 16% | fold change (FC) [1]: 1.92

SMILES: COc1ccc(-c2ccc(/C=C/C(=O)c3ccc(N)cc3O)s2)cc1
fold change (FC) [1]: 1.09

SMILES: O=c1cc(-c2csc3ccccc23)oc2cc(O)ccc12
fold change (FC) [1]: 1.44

Continued, in another order:

fold change (FC) [1]: 1.08
SMILES: CC(=O)Nc1ccc(C(=O)/C=C/c2ccc(C)s2)c(O)c1

Activity [6]: 18% | fold change (FC) [1]: 1.66
SMILES: O=C(O)c1ccc(-c2cc(=O)c3ccc(O)cc3o2)cc1

fold change (FC) [1]: 1.55
SMILES: Nc1ccc(C(=O)/C=C/c2ccc(-c3ccccc3)cc2)c(O)c1

fold change (FC) [1]: 1.37
SMILES: CCOc1ccc(-c2cc(=O)c3ccc(N)cc3o2)cc1

fold change (FC) [1]: 1.02
SMILES: Cc1ccc(/C=C/C(=O)c2ccc(N(C)C)cc2O)o1

fold change (FC) [1]: 1.12
SMILES: Nc1ccc(C(=O)/C=C/c2cc(C(F)(F)F)cc(C(F)(F)F)c2)c(O)c1

fold change (FC) [1]: 1.73
SMILES: CCc1ccc(/C=C/C(=O)c2ccc(N)cc2O)cc1

fold change (FC) [1]: 1.36
SMILES: O=c1cc(-c2ccc3ccccc3n2)oc2cc(O)ccc12

Activity [6]: 39% | fold change (FC) [1]: 1.76
SMILES: Nc1ccc(C(=O)/C=C/c2c[nH]c3ccccc23)c(O)c1

Activity [6]: 42% | fold change (FC) [1]: 2.31
SMILES: Nc1ccc(C(=O)/C=C/c2csc3ccccc23)c(O)c1

Activity [6]: 55% | fold change (FC) [9]: 1.42 | fold change (FC) [10]: 1.86 | Activity [11]: 43% | fold change (FC) [1]: 1.83 | fold change (FC) [14]: 2.38 | Activity [21]: 242% | fold change (FC) [22]: 1.53
SMILES: O=C(O)Cc1cccc(OCCCN(Cc2cccc(C(F)(F)F)c2Cl)CC(c2ccccc2)c2ccccc2)c1
Activity [24]: Toxic

fold change (FC) [1]: 1.26
SMILES: CSc1ccc(/C=C/C(=O)c2ccc(N)cc2O)cc1

From ChEMBL document CHEMBL2417463, “Synthesis and identification of new flavonoids targeting liver X receptor β involved pathway as potential facilitators of Aβ clearance with reduced lipid accumulation” (J Med Chem, 2013)
